Source: patent US10604535B2, “Compounds, compositions and methods” (Denali Therapeutics Inc., priority 2016, dated 2020)
Like-named read-outs stand apart in the source and are kept apart here.

Legend:
MDCKII-MDR1 cell line = experiment: MDCKII-MDR1 permeability, efflux ratio; type: in vitro ADME; settings: MDCKII-MDR1, 3 μM, 90 min
Experimental: (§1) The blood brain barrier (BBB) separates circulating blood from the extracellular fluid of the central nervous system (CNS). The passive membrane permeability (Papp) and the P-gp (P-glycoprotein) substrate efflux potential were determined using the MDCKII-MDR1 cell line as an in vitro model of the effective permeability of a compound through the BBB. A bidirectional assay (Apical to Basolateral (A→B) and Basolateral to Apical (B→A)), in the absence and in the presence of GF120918 (a P-gp inhibitor) was conducted using pre-plated MDCKII-MDR1 cells (Corning HTS Transwell-96) obtained from SOLVO Biotechnology. The assay was run at 3 μM for 90 min (minutes) in triplicate using a HBSS+12.5 mM HEPES pH 7.4 transport buffer. Following incubation of samples from donor and receiver, wells were removed and measured by LC-MS/MS. Samples were extracted by protein precipitation with acetonitrile containing an appropriate internal standard (IS) having a known mass and molecular weight. The precipitate was centrifuged for 10 min at 3000 rpm (revolutions per minute). The supernatants were then collected, diluted if necessary, and injected on to the LC-MS/MS system. […] Papp (apparent permeability expressed in nm/sec [nanometer/second]) values were calculated according to the following equation: […]
(§2) Where dQ/dt is the permeability rate, C0 is the initial concentration in the donor solution (expressed as IS ratio), A and B are the surface areas of the filter (the surface area of the cell monolayer).
(§3) Monolayer efflux ratios (ER) were derived using the following equation: […]

[1] = tested on: human cryopreserved hepatocytes; experiment: Metabolic stability (hepatocytes); settings: for Human hepatocyte CLhep Avg: human cryopreserved hepatocytes; for clearance as % of liver blood flow: corresponding to human CLhep
Experimental: (§4) The metabolic stability of compounds was evaluated in human cryopreserved hepatocytes (BioreclamationlVT, NY, USA) in duplicate. Test articles (or controls) were added to a 24-well incubation plate (Becton Dickinson Labware, USA) containing 0.5×10^6 hepatocytes/mL in suspension. The plate was held at 37° C. and agitated with constant orbital shaking (orbital speed at 350 rpm). At each time point (0, 5, 10, 15, 20, 30, 45, 60, 90, 120, 150 and 180 min) a Tecan Evo robot aspirated 50 μL of the incubation mixture and 100 μL of acetonitrile containing internal standard to quench the reaction. […] Samples were centrifuged (3000 rpm for 10 minutes) and the plate sealed prior to injection onto an LC-MS/MS system.
(§5) The appropriate parent/daughter ions were monitored for the test article and IS with the LC-MS/MS system. The intrinsic clearance (Clint; expressed μL/min/million cells) was determined from the first order elimination constant (k, min^−1) of test article decay and the volume of the incubation. […] The intrinsic organ CL was then converted to the hepatic clearance (CLhep) using the well-stirred model as shown below, where Qh is human hepatic blood flow.
(§6) Hepatic clearance is expressed as mL/min/kg. The hepatic clearance relates to the flow of blood through the liver that is completely cleared of the compound.

[2] = tested on: FADD-deficient Jurkat cells; experiment: Cellular necroptosis assay (human TNFα-induced necrosis, CellTiter-Glo); type: cell-based; settings: Homo sapiens, Jurkat, 48 h, TNFα 10 ng/mL, read-out: Cell IC50
[3] = male, Sprague-Dawley Crl:CD(SD), in vivo, iv
[4] = tested on: human cryopreserved hepatocytes
Experimental: as §4, §5, §6

GST-hRIPK1 (8-327) = GST-hRIPK1 (8-327) (Homo sapiens (Human), UniProt Q13546); experiment: Fluorescent Polarization Binding (FP Binding) assay
P-gp (MDR1) = experiment: MDCKII-MDR1 permeability, efflux ratio; type: in vitro ADME; settings: dog, MDCK-MDR1, pH 7.4, MDCKII-MDR1, 3 μM, read-out: ER MDR1
Experimental: as §1, §2, §3

TNF/zVAD = settings: 30 mg/kg, from Table 2 of WO 2014/125444; cited from earlier work
[5] = male, Beagle, in vivo, iv
[6] = male, cynomolgus monkey, in vivo, iv

Chain of GST-hRIPK1 (8-327) (Q13546 8-327): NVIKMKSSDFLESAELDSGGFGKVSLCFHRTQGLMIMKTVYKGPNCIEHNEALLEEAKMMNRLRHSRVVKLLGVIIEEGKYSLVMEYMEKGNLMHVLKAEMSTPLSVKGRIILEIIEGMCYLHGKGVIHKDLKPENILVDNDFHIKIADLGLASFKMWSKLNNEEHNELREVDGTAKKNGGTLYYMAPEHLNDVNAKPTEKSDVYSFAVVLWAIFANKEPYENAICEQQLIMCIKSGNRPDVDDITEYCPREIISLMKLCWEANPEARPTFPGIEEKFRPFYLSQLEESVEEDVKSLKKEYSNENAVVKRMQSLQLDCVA

Human hepatocyte CLhep Avg [1] [mL/min/kg]	Rat unbound CL [3] [mL/min/kg]	IC50 (GST-hRIPK1 (8-327)) [nM]	efflux ratio at 90 min, 3 μM (P-gp (MDR1))	Cyno unbound CL [6] [mL/min/kg]	Compound	other results
16	–	0.1 to 1000	16	–	CN1C(=O)[C@@H](NC(=O)c2nnc(Cc3ccccc3)[nH]2)[C@H]2C[C@H]2c2ccccc21 [Example 46A, 5-benzyl-N-((2S)-4-methyl-3-oxo-1,1a,2,3,4,8b-hexahydrobenzo[b]cyclopropa[d]azepin-2-yl)-4H-1,2,4-triazole-3-carboxamide]	–
5.3	–	0.1 to 1000	36	–	[2H]C([2H])([2H])N1C(=O)[C@@H](NC(=O)c2nn(Cc3ccccc3)cc2F)[C@H]2C[C@H]2c2cc(S(C)(=O)=O)ccc21 [Example 183B, 1-benzyl-4-fluoro-N-((1aS,2S,8bR)-4-trideuteriomethyl-7-(methylsulfonyl)-3-oxo-1,1a,2,3,4,8b-hexahydrobenzo[b]cyclopropa[d]azepin-2-yl)-1H-pyrazole-3-carboxamide]	–
4.2	55	0.1 to 1000	1.4	58	CN1C(=O)[C@@H](NC(=O)c2nnc(Cc3ccccc3)o2)[C@H]2C[C@H]2c2nccnc21 [Example 177A, 5-benzyl-N-((7S,7aS,8aR)-5-methyl-6-oxo-5,6,7,7a,8,8a-hexahydrocyclopropa[d]pyrazino[2,3-b]azepin-7-yl)-1,3,4-oxadiazole-2-carboxamide]	–

Further lines, the molecule ahead of its results:

Compound	Human hepatocyte CLhep Avg [1] [mL/min/kg]	Rat unbound CL [3] [mL/min/kg]	IC50 (GST-hRIPK1 (8-327)) [nM]	efflux ratio at 90 min, 3 μM (P-gp (MDR1))	Cyno unbound CL [6] [mL/min/kg]	other results
CN1C(=O)[C@@H](NC(=O)c2nnc(Cc3ccccc3)o2)COc2ccccc21 [B, reference compound]	14	–	–	–	–	ER MDR1 (MDCKII-MDR1 cell line): 1.0; IC50 [2]: 0.3 nM
CN1C(=O)[C@@H](NC(=O)c2cc(C3(c4ccccc4)CC3)on2)COc2ccccc21 [Example 8, (S)—N-(5-methyl-4-oxo-2,3,4,5-tetrahydrobenzo[b][1,4]oxazepin-3-yl)-5-(1-phenylcyclopropyl)isoxazole-3-carboxamide]	–	3700	0.1 to 1000	–	–	Human hepatocyte CLhep Avg [4]: 19 mL/min/kg
CN1C(=O)[C@@H](NC(=O)c2cc(Cc3ccccc3)on2)CC2(CC2)c2ccccc21 [Example 9, (S)-5-benzyl-N-(1-methyl-2-oxo-1,2,3,4-tetrahydrospiro[benzo[b]azepine-5,1′-cyclopropan]-3-yl)isoxazole-3-carboxamide]	–	–	0.1 to 1000	–	–	Human hepatocyte CLhep Avg [4]: 19 mL/min/kg
CN1C(=O)[C@@H](NC(=O)c2nnc(Cc3ccccc3)[nH]2)COc2ccccc21 [A, reference compound]	6.8	77	–	–	–	inhibition of temperature loss (TNF/zVAD): 93%; Dog unbound CL [5]: 240 mL/min/kg; clearance as % of liver blood flow [1]: approximately 32%; IC50 [2]: 0.5 nM
C[C@H]1Oc2cccnc2N(C)C(=O)[C@H]1NC(=O)c1nnc(Cc2ccccc2)o1 [Example 134, 5-Benzyl-N-((2R,3S)-2,5-dimethyl-4-oxo-2,3,4,5-tetrahydropyrido[3,2-b][1,4]oxazepin-3-yl)-1,3,4-oxadiazole-2-carboxamide]	9.0	100	0.1 to 1000	–	140	–
CN1C(=O)[C@@H](NC(=O)c2nnc(Cc3ccccc3)[nH]2)[C@H]2C[C@H]2c2nccnc21 [Example 119B, 5-benzyl-N-((7S,7aS,8aR)-5-methyl-6-oxo-5,6,7,7a,8,8a-hexahydrocyclopropa[d]pyrazino[2,3-b]azepin-7-yl)-4H-1,2,4-triazole-3-carboxamide]	0	20	0.1 to 1000	18	26	–
CN1C(=O)[C@@H](NC(=O)c2nnc(C3(c4ccccc4)CC3)o2)COc2cccnc21 [Example 66, (S)—N-(5-methyl-4-oxo-2,3,4,5-tetrahydropyrido[3,2-b][1,4]oxazepin-3-yl)-5-(1-phenylcyclopropyl)-1,3,4-oxadiazole-2-carboxamide]	6.3	–	–	–	–	Dog unbound CL [5]: 36 mL/min/kg
CN1C(=O)[C@@H](NC(=O)c2nnc(Cc3ccccc3)[nH]2)COc2cccnc21 [Example 42, (S)-5-benzyl-N-(5-methyl-4-oxo-2,3,4,5-tetrahydropyrido[3,2-b][1,4]oxazepin-3-yl)-4H-1,2,4-triazole-3-carboxamide]	0.8	22	–	–	42	Dog unbound CL [5]: 64 mL/min/kg; clearance as % of liver blood flow [1]: less than 4%
CN1C(=O)[C@@H](NC(=O)c2ncn(Cc3cccc(C#N)c3)n2)COc2cccnc21 [Example 171, (S)-1-(3-cyanobenzyl)-N-(5-methyl-4-oxo-2,3,4,5-tetrahydropyrido[3,2-b][1,4]oxazepin-3-yl)-1H-1,2,4-triazole-3-carboxamide]	–	32	–	–	–	Human hepatocyte CLhep Avg [4]: 5.1 mL/min/kg
